Results as given in ChEMBL document CHEMBL5608163, “Structure modification of anoplin for fighting resistant bacteria” (Eur J Med Chem, 2024).
Values after ≈ are worked out from the molar mass of the structure shown. Square brackets hold non-standard residues; d marks the D form. Peptide text beside a SMILES is read from it. NMeI = CC[C@H](C)[C@H](NC)C(=O)O; NMeL = CN[C@@H](CC(C)C)C(=O)O

Columns and labels:
[1] = test system: Staphylococcus aureus; test: Antimicrobial activity against Staphylococcus aureus ATCC 25923 assessed as reduction in microbial growth incubated for 18 hrs by CLSI-based Mueller-Hinton broth dilution method; assay type: functional
[2] = test system: Erythrocyte; test: Hemolytic activity in mouse erythrocyte assessed as hemolysis incubated for 1 hr by microplate reader analysis; assay type: toxicity, cell-based
[3] = test system: Pseudomonas aeruginosa; test: Antibacterial activity against Pseudomonas aeruginosa ATCC 27853 assessed as reduction in bacterial growth incubated for 18 hrs by CLSI-based Mueller-Hinton broth dilution method; assay type: functional
[4] = test system: Acinetobacter baumannii; test: Antibacterial activity against Acinetobacter baumannii ATCC 19606 assessed as reduction in bacterial growth incubated for 18 hrs by CLSI-based Mueller-Hinton broth dilution method; assay type: functional
[5] = test system: Escherichia coli; test: Antibacterial activity against Escherichia coli ML-35 ATCC 43837 assessed as reduction in bacterial growth incubated for 18 hrs by CLSI-based Mueller-Hinton broth dilution method; assay type: functional
[6] = test system: Bacillus subtilis; test: Antibacterial activity against Bacillus subtilis ATCC 23857 assessed as reduction in bacterial growth incubated for 18 hrs by CLSI-based Mueller-Hinton broth dilution method; assay type: functional
[7] = test system: Klebsiella pneumoniae; test: Antibacterial activity against Klebsiella pneumoniae ATCC 700603 assessed as reduction in bacterial growth incubated for 18 hrs by CLSI-based Mueller-Hinton broth dilution method; assay type: functional
[8] = test system: Staphylococcus epidermidis; test: Antibacterial activity against Staphylococcus epidermidis ATCC 12228 assessed as reduction in bacterial growth incubated for 18 hrs by CLSI-based Mueller-Hinton broth dilution method; assay type: functional
[9] = test system: Staphylococcus aureus; test: Antibacterial activity against Staphylococcus aureus ATCC 25923 assessed as reduction in bacterial growth incubated for 18 hrs by Mueller-Hinton Broth based microdilution assay; assay type: functional
[10] = test system: Klebsiella pneumoniae; test: Antimicrobial activity against Klebsiella pneumoniae ATCC 700603 assessed as reduction in microbial growth incubated for 18 hrs by Mueller-Hinton Broth based microdilution assay; assay type: functional
[11] = test system: Bacillus subtilis; test: Antimicrobial activity against Bacillus subtilis ATCC 23857 assessed as reduction in microbial growth incubated for 18 hrs by Mueller-Hinton Broth based microdilution assay; assay type: functional
[12] = test system: Pseudomonas aeruginosa; test: Antimicrobial activity against Pseudomonas aeruginosa ATCC 27853 assessed as reduction in microbial growth incubated for 18 hrs by Mueller-Hinton Broth based microdilution assay; assay type: functional
[13] = test system: Escherichia coli; test: Antibacterial activity against Escherichia coli ATCC 25922 assessed as reduction in bacterial growth incubated for 18 hrs by Mueller-Hinton Broth based microdilution assay; assay type: functional

Row | MIC [1] [µM] | MIC [3] [µM] | MIC [4] [µM] | MIC [5] [µM] | MIC [6] [µM] | MIC [7] [µM] | MIC [8] [µM] | MIC [9] [µM] | MIC [10] [µM] | MIC [11] [µM] | MIC [12] [µM] | MIC [13] [µM] | Compound | HC10 [2] [µM]
1 | 16 | 32 (≈ 44.1 µg/mL) | 8 (≈ 11 µg/mL) | 64 (≈ 88.2 µg/mL) | 8 (≈ 11 µg/mL) | 32 (≈ 44.1 µg/mL) | 4 (≈ 5.51 µg/mL) | – | – | – | – | – | CCCCCCCCCCCCCCC(=O)NCCCC[C@@H](NC(=O)[C@@H](NC(=O)[C@H](CCCNC(=N)N)NC(=O)[C@@H](CCCCN)NC(=O)[C@H](CC(C)C)NC(=O)[C@H](CC(C)C)NC(=O)CN)[C@@H](C)CC)C(=O)N[C@H](C(=O)N[C@@H](CC(C)C)C(=O)N[C@@H](CC(C)C)C(N)=O)[C@@H](C)O | 16
2 | > 128 | 64 (≈ 81 µg/mL) | > 128 | > 128 | 32 (≈ 40.5 µg/mL) | > 128 | 128 (≈ 162 µg/mL) | – | – | – | – | – | CCCCCCC(=O)NCCCC[C@@H](NC(=O)[C@H](CC(C)C)NC(=O)[C@H](CC(C)C)NC(=O)CN)C(=O)N[C@@H](CCCNC(=N)N)C(=O)N[C@H](C(=O)N[C@H](CCCCN)C(=O)N[C@H](C(=O)N[C@@H](CC(C)C)C(=O)N[C@@H](CC(C)C)C(N)=O)[C@@H](C)O)[C@@H](C)CC | > 256
3 | 32 | 64 (≈ 90 µg/mL) | 16 (≈ 22.5 µg/mL) | 64 (≈ 90 µg/mL) | 8 (≈ 11.2 µg/mL) | 128 (≈ 180 µg/mL) | 64 (≈ 90 µg/mL) | – | – | – | – | – | CCCCCCCCCCCCCCCCC(=O)NCCCC[C@@H](NC(=O)[C@H](CC(C)C)NC(=O)[C@H](CC(C)C)NC(=O)CN)C(=O)N[C@@H](CCCNC(=N)N)C(=O)N[C@H](C(=O)N[C@H](CCCCN)C(=O)N[C@H](C(=O)N[C@@H](CC(C)C)C(=O)N[C@@H](CC(C)C)C(N)=O)[C@@H](C)O)[C@@H](C)CC | > 16
4 | 4 | 8 (≈ 10.8 µg/mL) | 4 (≈ 5.4 µg/mL) | 16 (≈ 21.6 µg/mL) | 2 (≈ 2.7 µg/mL) | 16 (≈ 21.6 µg/mL) | 4 (≈ 5.4 µg/mL) | – | – | – | – | – | CCCCCCCCCCCCC(=O)NCCCC[C@@H](NC(=O)[C@@H](NC(=O)[C@H](CCCNC(=N)N)NC(=O)[C@@H](CCCCN)NC(=O)[C@H](CC(C)C)NC(=O)[C@H](CC(C)C)NC(=O)CN)[C@@H](C)CC)C(=O)N[C@H](C(=O)N[C@@H](CC(C)C)C(=O)N[C@@H](CC(C)C)C(N)=O)[C@@H](C)O | 32
5 | – | – | – | – | – | – | – | > 128 | > 128 | > 128 | > 128 | > 128 | CC[C@H](C)[C@H](NC(=O)[C@H](CCCNC(=N)N)NC(=O)[C@H](CCCCN)NC(=O)[C@H](CC(C)C)N(C)C(=O)[C@H](CC(C)C)NC(=O)CN)C(=O)N[C@@H](CCCCN)C(=O)N[C@H](C(=O)N(C)[C@@H](CC(C)C)C(=O)N[C@@H](CC(C)C)C(N)=O)[C@@H](C)O (H-GL[NMeL]KRIKT[NMeL]L-NH2) | –
6 | – | – | – | – | – | – | – | > 128 | > 128 | 128 | > 128 | > 128 | CC[C@H](C)[C@@H](C(=O)N[C@@H](CCCCN)C(=O)N[C@H](C(=O)N[C@@H](CC(C)C)C(=O)N[C@@H](CC(C)C)C(N)=O)[C@@H](C)O)N(C)C(=O)[C@H](CCCNC(=N)N)NC(=O)[C@H](CCCCN)NC(=O)[C@H](CC(C)C)N(C)C(=O)[C@H](CC(C)C)NC(=O)CN (H-GL[NMeL]KR[NMeI]KTLL-NH2) | –
7 | – | – | – | – | – | – | – | > 128 | > 128 | 16 | 32 | > 128 | CC[C@H](C)[C@H](NC(=O)[C@H](CCCNC(=N)N)NC(=O)[C@H](CCCCN)NC(=O)[C@H](CC(C)C)NC(=O)[C@H](CC(C)C)N(C)C(=O)CN)C(=O)N[C@@H](CCCCN)C(=O)N[C@H](C(=O)N[C@@H](CC(C)C)C(=O)N[C@@H](CC(C)C)C(N)=O)[C@@H](C)O (H-G[NMeL]LKRIKTLL-NH2) | –
8 | – | – | – | – | – | – | – | > 128 | > 128 | > 128 | 128 | > 128 | CC[C@H](C)[C@H](NC(=O)[C@H](CCCNC(=N)N)NC(=O)[C@H](CCCCN)NC(=O)[C@H](CC(C)C)NC(=O)[C@H](CC(C)C)N(C)C(=O)CN)C(=O)N[C@@H](CCCCN)C(=O)N[C@H](C(=O)N[C@@H](CC(C)C)C(=O)N(C)[C@@H](CC(C)C)C(N)=O)[C@@H](C)O (H-G[NMeL]LKRIKTL[NMeL]-NH2) | –
9 | – | – | – | – | – | – | – | > 128 | > 128 | > 128 | 128 | > 128 | CC[C@H](C)[C@H](NC(=O)[C@H](CCCNC(=N)N)NC(=O)[C@H](CCCCN)NC(=O)[C@H](CC(C)C)N(C)C(=O)[C@H](CC(C)C)N(C)C(=O)CN)C(=O)N[C@@H](CCCCN)C(=O)N[C@H](C(=O)N(C)[C@@H](CC(C)C)C(=O)N(C)[C@@H](CC(C)C)C(N)=O)[C@@H](C)O (H-G[NMeL][NMeL]KRIKT[NMeL][NMeL]-NH2) | –
